Assay [1] relates to VEGF promoter (rat VEGF gene promoter, Hep3B-VEGFLuciferase cells). Put plainly: Luciferase assay in Hep3B-VEGFLuciferase cells, deferoxamine-induced hypoxia. The format is cell-based. As to conditions: Homo sapiens, deferoxamine about 100 μM, 18-20 hours, 50% inhibition of the luciferase signal. As for the experimental part: (§1) The compounds having inhibitory activity in the Hif-1α/p300 assay described above were evaluated using a cellular test on genetically modified human hepatocarcinoma Hep3B cells (Hep3B-VEGFLuciferase) in order to stably express a vector in which the Open Reading Frame of firefly Luciferase was under the control of the rat VEGF gene promoter.
Hif-1 Induction using deferoxamine (which induces hypoxia) induces luciferase transcription through activation of the VEGF promoter, which in turn causes an increase in luciferase activity, which can be measured with a commercially available kit. The compounds interfering with the Hif-1α/p300 complex inhibit Hif-dependent luciferase activation, resulting in a reduction of luciferase activity. This assay therefore allows to evaluate the activity of the compounds towards the VEGF promoter, which is essential to VEGF production and the subsequent tumor angiogenesis.
(§2) The Hep-3B-VEGFLuciferase cell line was obtained according to the following procedure.
(§3) Human hepatocarcinoma cells Hep-3B (ATCC reference No. HB-8064) were seeded onto 6 wells plates at a concentration of 2.5×10^5 cells/well in 2 ml DMEM/10% FCS and the following day were transfected using Fugene 6 (Roche Biochemicals®). In each well, the transfection mixtures contained 6 μl of the transfection reagent Fugene 6, 1 μg of the pxp2-VEGF-luciferase reporter plasmid (VEGF rat promoter, NCBI GenBank No. of accession U22373, Levy et al., J. Biol. Chem. 270 (22), 13333-13340. 1995), and 10 ng of pcDNA3.1(+)plasmid (INVITROGEN) which makes cells resistant to neomycin. Transfection was carried out according to the manufacturer's instructions.
(§4) A suitable cell population (phenotypically resistant to neomycin) was selected by means of a cloning approach based on the “dilution limit” procedure (Sambrook J., Fritsch E. F. and Maniatis T. (1989) Molecular Cloning, A Laboratory Manual; Cold Spring Harbor Laboratories). The subsequent assays for Luciferase expression/activity “Luciferase assay” and for the quantification of secreted VEGF in the supernatant “ELISA secreted VEGF test”) were carried out with the stably transfected selected cells.
(§5) The following experimental protocol was used:
(§6) Day 1. Hep-3B-VEGF Luciferase cells were seeded onto 96-wells “blank” plates (a product by Greiner) at a density of 1×10^4 cells/well/125 μl of medium, then left to adhere overnight in thermostat (37° C./5% CO2).
(§7) Day 2. 75 μl of “3.2× working solutions” of compound (previously prepared in culture medium so that the DMSO concentration is 1.6% v/v) were added to the cells (partial volume/well=200 μl, partial concentration of compound=1.2×, partial concentration of DMSO=0.6%). After 1 hour incubation in thermostat, hypoxia was induced chemically by addition of 40 μl/well of a 6× (600 μM) stock solution of deferoxamine (final volume/well=240 μl, final concentration of compound=1×, final concentration of DMSO=0.5%, final concentration of deferoxamine=1×≈100 μM). The plates were then thermostated for further 18-20 hours.
(§8) Day 3. The “Luciferase assay” and the “secreted VEGF ELISA test” were carried out as follows.
Quantification of the expression of the Luciferase reporter gene was performed by means of the Bright Glo Reagent (Promega). After removing the supernatant and washing once with PBS, 40 μl/well of Bright Glo Reagent were added to blank 96-well plates with Hep3B/VEGF-Luciferase cells. The expression levels of the reporter gene were determined by reading the plates with a luminometer.
(§9) IC50 values (concentration of the compound that causes 50% inhibition of the luciferase signal or 50% reduction of secreted VEGF) for some compounds of the invention are reported in table 2: […]

Assay [2] has as its system secreted VEGF (Hep3B-VEGFLuciferase cells). The assay is described as follows: Secreted VEGF ELISA test in Hep3B-VEGFLuciferase cells, deferoxamine-induced hypoxia. Type of assay: cell-based. As to conditions: Homo sapiens, supernatant, deferoxamine about 100 μM, 18-20 hours, 50% reduction of secreted VEGF. The protocol:
as §1, §2, §3, §4, §5, §6, §7, §8
“Secreted VEGF ELISA Test”
Quantification of secreted VEGF was performed using the kit “DuoSet Elisa Development System human VEGF” kit (R&D Systems). 100 μl/well of the supernatant from the “blank” 96 well-plates with the cells of the Hep3B/VEGF Luciferase clone were transferred into transparent 96-well plates of (Maxisorp) and assayed according to the indications of the kit manufacturer.
as §9

Assay [3] has as its target T1, Biot-Hif-1α^786-826/GST-p300^323/423 (Homo sapiens, UniProt Q09472).
T1 construct: the p300 region ranging from amino acids 323 to 423; fragment corresponding to C-terminal 786-826 amino acids; host or cells: E. coli BL21 (DE3), vector pGEX-4T-1
The assay is described as follows: Primary biochemical assay (DELFIA fluorescence) for inhibition of the Hif-1α/p300 interaction. Type of assay: binding. As to conditions: 10 concentrations from 90 μM to 0.178 μM, 1 h at 25° C. The protocol:
Primary Biochemical Assay for the Inhibition of Biot-Hif-1α^786-826/GST-p300^323/423
The compounds were evaluated for their ability to inhibit the interaction between Hif-1α and p300 using a fluorescence assay (DELFIA™). The procedure described by Freedman S J at al., Nature Structural Biology 2003, 10 (7), 504-512 was suitably modified.
The human biotinylated Hif-1α fragment corresponding to C-terminal 786-826 amino acids (Biotinylated Hif-1α^786-826) was obtained from AnaSpec Inc (San Jose, Calif., USA) and used without further purifications.
A construct expressing the GST-p300^323-423 fragment was transformed in the BL21 (DE3) strain of E. coli. Said construct was obtained by cloning in the expression vector pGEX-4T-1 (Amersham No. 27-45-80-01) the DNA sequence which encodes for the p300 region ranging from amino acids 323 to 423; the DNA sequence was obtained by PCR (Polymerase Chain Reaction). The protein region was induced with 1 mM isopropyl-1-tio-β-D-galactopyranoside (IPTG). The bacteria were lysed by sonication in the presence of a suitable buffer (50 mM Tris*HCl pH 8.00, 100 mM NaCl, 0.1 mM ZnSO4, 1 mM DTT, 0.1 mg/ml lysozyme and a tablet of Complete EDTA-free Protease Inhibitor Cocktail Tablets (Roche, catalogue number 1 873 580)) and the GST fusion protein present in the soluble fraction was purified on a Glutathione-Sepharose 4B resin (Amersham Biosciences; no. 27-4574-01). The protein final concentration was determined according to Bradford with the Biorad assay (Bradford M., Anal. Biochem., 72, 248, (1976)). The purity of the sample was evaluated by SDS-PAGE. Samples were stored at −80° C. in 50% glycerol.
The assay was carried out using NUNC Maxisorp 96 wells plates as follows.
C96 NUNC Maxisorp plates (from Nunc, product No. 446612) were incubated overnight with streptavidin (Sigma; product No. S 4762) to a final concentration of 1 μg/ml in PBS buffer (Phosphate Buffered Saline 10 mM sodium phosphate, 150 mM sodium chloride pH 7.4). Each well was subsequently washed with 3×300 μl of TBST buffer (50 mM Tris*HCl pH 8.0, 150 mM NaCl, 0.05% (v/v) Tween 20). Each well was then added with 100 μl of a 10 nM solution of biotinylated Hif-1α^786-826 in TBSB (50 mM Tris-HCl pH 8.0, 150 mM NaCl, 5% (w/v) BSA (Sigma, product No. A 2153)) and incubated for 1 h at 25° C. In the last row of each plate, only the TBSB buffer was added. Each well was subsequently washed three times with 300 μl of TBST buffer. The thus prepared plate represented the assay plate.
Separately, the plate (daughter plate) containing in each well 10 μl of each test compound dissolved in DMSO to a concentration of 10 μM was prepared. This plate was added with 100 μl of a 111 pM solution of GST-p300^323-423 diluted in the incubation buffer (TBSB added with 0.1% (v/v) Tween 20, 0.5 mM DTT, 10 μM ZnCl2) and the whole was mixed. 100 μl of the mixture contained in the daughter plate were immediately transferred to the assay plate.
Each daughter plate was prepared with 80 different compounds at a 10 μM concentration, safe for the two last well rows, wherein each well was added with 10 μl of DMSO. These two rows represented the positive (row 11, +Hif-1) and negative (row 12, −Hif-1) controls.
After incubation for 1 h at 25° C., each well was washed with 3×300 μl of TBST buffer (50 mM Tris-HCl pH 8.0. 150 mM NaCl, 0.05% (v/v) Tween 20). Each well was then added with 60.8 ng of an europium-labelled anti-GST antibody (DELFIA Eu-N1 labeled; Perkin Elmer; product no. A D 0251) dissolved in 100 μl of TBST buffer containing 10 μM ZnCl2. After incubation for 1 h at room temperature, each well was washed with 3×300 μl of TBST buffer, then 100 μl of signal amplification solution (Enhancement Solution, Perkin Elmer product No. 1244-105) were added.
The plates were then read using a FUSION alpha-FP-HT reader (Perkin Elmer) in fluorescence mode for time resolution.
The activity of the compounds was calculated as follows. […]

Where only a bound is given, the exact number is not on record here.

T1 sequence (Q09472 323-423): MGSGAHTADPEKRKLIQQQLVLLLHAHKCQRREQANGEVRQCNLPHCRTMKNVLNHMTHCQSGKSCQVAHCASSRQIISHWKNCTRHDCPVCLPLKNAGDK

Turning to `CCOC(=O)c1c2c(n(C)c1CN(C)C)C(=O)C(=O)c1ccc(Br)cc1-2` [Example 5, Ethyl 8-bromo-2-dimethylaminomethyl-3-methyl-4,5-dioxo-4,5-dihydro-3H-benzo[e]indole-1-carboxylate], the IC50 (in general, the concentration at which inhibition is half-maximal) in assay [1] turned out to be 0.26 µM; in assay [2], 1.2 µM; in assay [3] it was 1.5 µM.

For `CCOC(=O)c1c(C)[nH]c2c1-c1cc(Br)ccc1C(=O)C2=O` [Example 1, Ethyl 8-bromo-2-methyl-4,5-dioxo-4,5-dihydro-3H-benzo[e]indole-1-carboxylate], the IC50 in assay [1] came out at 0.45 µM; in assay [2], 5.78 µM; in assay [3], 13.2 µM.

For the compound `CCOC(=O)c1c2c(n(CC(=O)O)c1C)C(=O)C(=O)c1ccc(Br)cc1-2` [Example 8, Ethyl 8-bromo-3-carboxymethyl-2-methyl-4,5-dioxo-4,5-dihydro-3H-benzo[e]indole-1-carboxylate], the IC50 in assay [1] is greater than 12.5 µM; in assay [2], greater than 12.5 µM; in assay [3] it was 32.9 µM.

For `CCOC(=O)c1c2c(n(CC(N)=O)c1C)C(=O)C(=O)c1ccc(Br)cc1-2` [Example 9, Ethyl 8-bromo-3-carbamoylmethyl-2-methyl-4,5-dioxo-4,5-dihydro-3H-benzo[e]indole-1-carboxylate], the results for the IC50 in assay [1], in assay [2] and in assay [3] were 0.6 µM, greater than 12.5 µM and 9.6 µM, respectively.

Consider `CCOC(=O)c1c2c(n(C)c1CN1CCOCC1)C(=O)C(=O)c1ccc(Br)cc1-2` [Example 4, Ethyl 8-bromo-3-methyl-2-(morpholin-4′-yl)methyl-4,5-dioxo-4,5-dihydro-3H-benzo[e]indole-1-carboxylate], for which the IC50 in assay [1] was 1.1 µM; in assay [2] it was 4.8 µM; in assay [3] it was 11 µM.

On to `CCOC(=O)c1c2c(n(C)c1CO)C(=O)C(=O)c1ccc(Br)cc1-2` [12(a), Ethyl 8-bromo-2-hydroxymethyl-3-methyl-4,5-dioxo-4,5-dihydro-3H-benzo[e]indole-1-carboxylate], for which the IC50 came out at 0.32 µM in assay [1], 2.03 µM in assay [2] and 14.2 µM in assay [3].

Consider `CCOC(=O)c1c2c(n(C)c1CN(CC)CC)C(=O)C(=O)c1ccc(Br)cc1-2` [12(b), Ethyl 8-bromo-2-diethylaminomethyl-3-methyl-4,5-dioxo-4,5-dihydro-3H-benzo[e]indole-1-carboxylate], for which the IC50 was 0.32 µM in assay [1], 2.03 µM in assay [2] and 13.3 µM in assay [3].

For `CCOC(=O)c1c2c(n(CC(=O)OC(C)(C)C)c1C)C(=O)C(=O)c1ccc(Br)cc1-2` [Example 7, Ethyl 8-bromo-3-tert-butoxycarbonylmethyl-2-methyl-4,5-dioxo-4,5-dihydro-3H-benzo[e]indole-1-carboxylate], the IC50 was found to be 1.6 µM in assay [1], 9.3 µM in assay [2] and 14.9 µM in assay [3].

`CCOC(=O)c1c2c(n(C)c1CNC(C)C)C(=O)C(=O)c1ccc(Br)cc1-2` [Example 6, Ethyl 8-bromo-2-isopropylaminomethyl-3-methyl-4,5-dioxo-4,5-dihydro-3H-benzo[e]indole-1-carboxylate]: the IC50 stood at 0.3 µM in assay [1], 0.3 µM in assay [2] and 9.1 µM in assay [3].

On to `CCOC(=O)c1c2c(n(Cc3ccccc3)c1C)C(=O)C(=O)c1ccc(Br)cc1-2` [12(c), Ethyl 8-bromo-2-methyl-3-benzyl-4,5-dioxo-4,5-dihydro-3H-benzo[e]indole-1-carboxylate], for which the values for the IC50 in assay [1], in assay [2] and in assay [3] were 1.08 µM, 14.5 µM and 7.3 µM, respectively.

Regarding `CCOC(=O)c1c2c(n(C)c1C)C(=O)C(=O)c1ccc(Br)cc1-2` [Example 3, Ethyl 8-bromo-2,3-dimethyl-4,5-dioxo-4,5-dihydro-3H-benzo[e]indole-1-carboxylate], the values for the 50% inhibitory concentration (IC50) in assay [1], in assay [2] and in assay [3] were 0.47 µM, 10.7 µM and 3.3 µM, respectively.

The values above are taken from patent publication US20090036441A1, “Indole Derivatives With Antitumor Activity” (Cell Therapeutics Europe S.R.L., priority 2004, published 2009).
